Broadly, the Km is the concentration of substrate that gives half-maximal velocity. The Ki is a dissociation constant, usually derived from enzyme kinetics or from competition with a known ligand.

For experiment [1], the system named is ERAP1 K528R. Briefly: Activation of LAMC trimming by SIINFEKL, ERAP1 K528R. In kind it is biochemical, human. To be noted: 100 μM SIINFEKL, 25°C, up to 10 min.
Experiment [2] has as its system ERAP1 Q730E. Briefly: Activation of LAMC trimming by SIINFEKL, ERAP1 Q730E. In kind it is biochemical, human. To be noted: 100 μM SIINFEKL, 25°C, up to 10 min.
The test system of experiment [3] is ERAP1 alleles (Ref, K528R, Q730E). Briefly: LAMC trimming in the presence of SIINFEKL, all three ERAP1 alleles. In kind it is biochemical, human. To be noted: 100 μM SIINFEKL
The subject of experiment [4] is ERAP1. Particulars: 8mer peptide; ref [3]; cited from earlier work.
The target in experiment [5] is ERAP1 K528R (528R) (Homo sapiens, UniProt Q9NZ08, K528R). Description: Michaelis–Menten kinetics of antigenic peptide precursor trimming, ERAP1 K528R. The class given is biochemical.
Experiment [6] addresses ERAP1 Q730E (730E) (Homo sapiens, UniProt Q9NZ08, Q730E). Description: Michaelis–Menten kinetics of antigenic peptide precursor trimming, ERAP1 Q730E. To be noted: 730E allele; classical MM model; initial trimming rates, reactions limited to 10 min, 25°C. The class given is biochemical.
Experiment [7] relates to ERAP1 Q730E (730E). The experiment is described as above. In kind it is biochemical, human. Particulars: low substrate concentrations (kcat/KM); Q730E vs Ref and K528R.
The test system of experiment [8] is ERAP1 alleles (Ref, K528R, Q730E). Briefly: LAMC hydrolysis, all three ERAP1 alleles. Particulars: no activating peptide; 25°C, up to 10 min. In kind it is biochemical, human.
For experiment [9], the system named is ERAP1 K528R. Description: LAMC hydrolysis, ERAP1 K528R. The class given is biochemical, human. Particulars: no activating peptide, 25°C, up to 10 min.
The target of experiment [10] is ERAP1 Q730E (rs27044) (human, UniProt Q9NZ08-2 1-948, Q730E). Briefly: enzyme kinetics.
The target of experiment [11] is endoplasmic reticulum aminopeptidase 1 (ERAP1), ancestral reference sequence NP_057526 (human, UniProt Q9NZ08-2 1-948). Briefly: enzyme kinetics.
Where [12] appears, read: 528R allele, classical MM model, initial trimming rates, reactions limited to 10 min, 25°C.

For SIINFEKL, the “magnitude of activation of LAMC trimming” value in experiment [1] was determined as 4 fold; in experiment [2], 1.6 fold. The “ERAP1-mediated hydrolysis of LAMC in the presence of SIINFEKL” value in [3] is reported as “enhanced”. For the same molecule, the “substrate quality for ERAP1” value in [4] was “poor substrate”.
LATFPDTLTY: in experiment [5] (setting [12]), the Michaelis constant (Km) is 49 ± 13 µM, the kcat was 3.09 ± 0.203 s^–1 and the kcat/KM is 63 ± 17 × 10^3 s^–1 M^–1. The “processing rate by the K528R allele relative to other alleles” value in experiment [5] (saturating conditions (kcat controls trimming rates)) was “twice as quickly”. In [6], the Km turned out to be 45 ± 11 µM, the kcat was found to be 1.635 ± 0.10 s^–1 and the kcat/KM was 36 ± 9 × 10^3 s^–1 M^–1. Further, in experiment [7], the “processing rate, fold more slowly by Q730E than by the other two alleles” value was 2 fold.
On to `Cc1cc(=O)oc2cc(NC(=O)[C@@H](N)CC(C)C)ccc12` [LAMC, L-leucine-7-amido-4-methyl coumarin], for which, in experiment [8], the “hydrolysis of LAMC by all three variants” value was “enzymatically active”. The “fold less active of ERAP1 K528R in LAMC hydrolysis” value in experiment [9] is ~ 4 fold. In addition, the “trimming activity of all three alleles toward LAMC in the presence of SIINFEKL” value in experiment [3] (comparison between the three alleles) is “comparable trimming activity”.
On to LKRVVINKDT [LKRVVINKDT, single-amino acid extended precursor of the HLA-B27 ligand KRVVINKDT], for which the affinity in [10] corresponds to a Ki of 132 ± 53 µM.
YKRFEGLTQR [YKRFEGLTQR, single-amino acid extended precursor of the HLA-B27 ligand KRFEGLTQR] came in with an inhibition constant Ki in experiment [11] of 394 ± 133 µM.

Source of the values: publication PMC4039038 (Journal of immunology (Baltimore, Md. : 1950), 2011).
